Experiment [1] addresses human Bruton's Tyrosine Kinase (Btk) (Homo sapiens (Human), UniProt Q06187). The experiment can be described thus: Recombinant Human Bruton's Tyrosine Kinase (Btk) Inhibition Assay (HTRF KinEASE-TK). Particulars: 20 ng/ml rhBtk, 77 μM ATP (KM), 1 μM TK-Biotin substrate, 90 min; read-out: hBTK IC50. Format: biochemical.
In experiment [2] the test system is mouse splenocytes. As to the kind of experiment: Inhibition of B Cell Activation as Measured by CD69 Expression in Mouse Splenocytes. Type of experiment: cell-based. Particulars: Splenocyte; C57/BL6 splenocytes, 3 ug/mL goat anti-mouse IgM, 18-20 hrs, CD69+ve cells within CD19; read-out: Mouse spleenocyte IC50. Summed up: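 Total mouse splenocytes pre-incubated with compounds (half-log dilutions; DMSO 200× stocks from 2 mM) 30 min at 37 °C, then stimulated with 3 ug/mL anti-mouse IgM for 18-20 hrs. CD69+ cells within CD19+ B cells quantified by flow cytometry; IC50 from variable-slope sigmoid dose-response fit.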

The values that follow come from patent publication US9233983B2, “Substituted hetero-bicyclic compounds, compositions and medicinal applications thereof” (ADVINUS THERAPEUTICS LIMITED, priority 2012, dated 2016).

The term IC50 denotes the concentration that gives 50% inhibition.

Chain of human Bruton's Tyrosine Kinase (Btk) (Q06187 whole entry): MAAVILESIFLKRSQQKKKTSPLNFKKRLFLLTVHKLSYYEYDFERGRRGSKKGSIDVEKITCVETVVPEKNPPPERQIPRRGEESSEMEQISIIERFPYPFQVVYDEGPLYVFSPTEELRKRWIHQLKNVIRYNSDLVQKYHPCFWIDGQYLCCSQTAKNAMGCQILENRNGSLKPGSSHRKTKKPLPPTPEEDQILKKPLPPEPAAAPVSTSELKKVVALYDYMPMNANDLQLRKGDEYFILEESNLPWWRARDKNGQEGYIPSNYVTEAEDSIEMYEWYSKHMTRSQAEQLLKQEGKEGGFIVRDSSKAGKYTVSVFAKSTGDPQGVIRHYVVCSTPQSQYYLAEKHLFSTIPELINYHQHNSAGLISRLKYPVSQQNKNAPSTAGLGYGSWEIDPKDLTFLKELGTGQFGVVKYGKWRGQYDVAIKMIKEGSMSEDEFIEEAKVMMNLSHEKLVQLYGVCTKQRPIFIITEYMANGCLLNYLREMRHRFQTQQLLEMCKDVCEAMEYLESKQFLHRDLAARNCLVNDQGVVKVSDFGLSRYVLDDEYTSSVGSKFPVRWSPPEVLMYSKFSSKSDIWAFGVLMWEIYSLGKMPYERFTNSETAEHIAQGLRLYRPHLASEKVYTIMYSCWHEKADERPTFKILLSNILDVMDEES

`CCN1CC=C(c2cc3c(-c4cccc(N5CCOc6cc(C7CC7)cc(F)c6C5=O)c4CO)ccnc3[nH]2)CC1` [Example R-3, 8-cyclopropyl-4-[3-[2-(1-ethyl-3,6-dihydro-2H-pyridin-4-yl)-1H-pyrrolo[2,3-b]pyridin-4-yl]-2-(hydroxymethyl)phenyl]-6-fluoro-2,3-dihydro-1,4-benzoxazepin-5-one]: the IC50 in experiment [1] stood at 22 nM; in experiment [2], 85 nM.
Consider `CN1CCOC(c2ccc(-c3cc4c(-c5cccc(N6CCOc7cc(C8CC8)ccc7C6=O)c5CO)ccnc4[nH]3)cc2)C1` (stereo not drawn) [Example C-5, 8-cyclopropyl-4-[2-(hydroxymethyl)-3-[2-[4-(4-methylmorpholin-2-yl)phenyl]-1H-pyrrolo[2,3-b]pyridin-4-yl]phenyl]-2,3-dihydro-1,4-benzoxazepin-5-one], for which the half-maximal inhibitory concentration (IC50) in experiment [1] stood at 3 nM; in experiment [2] it was 125 nM.
`CC(=O)N1CC=C(c2cc3c(-c4cccc(N5CCOc6cc(C7CC7)cc(F)c6C5=O)c4CO)ccnc3[nH]2)CC1` [Example P-24, 4-[3-[2-(1-acetyl-3,6-dihydro-2H-pyridin-4-yl)-1H-pyrrolo[2,3-b]pyridin-4-yl]-2-(hydroxymethyl)phenyl]-8-cyclopropyl-6-fluoro-2,3-dihydro-1,4-benzoxazepin-5-one]: the values for the half-maximal inhibitory concentration (IC50) in experiment [1] and in experiment [2] were 3.6 nM and 11 nM, respectively.
With `CN1CCN(Cc2ccc(-c3cc4c(-c5cccc(N6CCOc7cc(C8CC8)ccc7C6=O)c5CO)ccnc4[nH]3)cc2)CC1` [Example B-13, 8-cyclopropyl-4-[2-(hydroxymethyl)-3-[2-[4-[(4-methylpiperazin-1-yl)methyl]phenyl]-1H-pyrrolo[2,3-b]pyridin-4-yl]phenyl]-2,3-dihydro-1,4-benzoxazepin-5-one], the concentration for half-maximal inhibition (IC50) was determined as 3 nM in experiment [1] and 9 nM in experiment [2].
The corresponding values for `CN1CCC(Oc2ccc(-c3cc4c(-c5cccc(N6CCOc7cc(C8CC8)ccc7C6=O)c5CO)ncnc4[nH]3)cc2)CC1` [Example G-1, 8-cyclopropyl-4-[2-(hydroxymethyl)-3-[6-[4-[(1-methyl-4-piperidyl)oxy]phenyl]-7H-pyrrolo[2,3-d]pyrimidin-4-yl]phenyl]-2,3-dihydro-1,4-benzoxazepin-5-one] are 3 nM and 51 nM.
Turning to `CN1CCN(c2ccc(-c3cc4c(-c5cccc(-n6ccc7cc(C8CC8)ccc7c6=O)c5CO)ncnc4[nH]3)cc2)CC1` [Example C-1, 6-cyclopropyl-2-[2-(hydroxymethyl)-3-[6-[4-(4-methylpiperazin-1-yl)phenyl]-7H-pyrrolo[2,3-d]pyrimidin-4-yl]phenyl]isoquinolin-1-one], the concentration for half-maximal inhibition (IC50) in experiment [1] worked out at 5 nM; in experiment [2] it was 9 nM.
As for `CC(C)N1CC(Oc2ccc(-c3cc4c(-c5cccc(N6CCOc7cc(C8CC8)ccc7C6=O)c5CO)ccnc4[nH]3)cn2)C1` [Example D-12, 8-cyclopropyl-4-[2-(hydroxymethyl)-3-[2-[6-(1-isopropylazetidin-3-yl)oxy-3-pyridyl]-1H-pyrrolo[2,3-b]pyridin-4-yl]phenyl]-2,3-dihydro-1,4-benzoxazepin-5-one], the IC50 was 11 nM in experiment [1] and 261 nM in experiment [2].
The corresponding values for `CN1CCN(Cc2ccc(-c3cc4c(-c5cccc(N6CCOc7cc(C8CC8)cc(F)c7C6=O)c5CO)ccnc4[nH]3)nc2)CC1=O` [Example I-15, 8-cyclopropyl-6-fluoro-4-[2-(hydroxymethyl)-3-[2-[5-[(4-methyl-3-oxo-piperazin-1-yl)methyl]-2-pyridyl]-1H-pyrrolo[2,3-b]pyridin-4-yl]phenyl]-2,3-dihydro-1,4-benzoxazepin-5-one] are 1.5 nM and 18 nM.
The corresponding values for `CN1CCC(c2ccc(-c3cc4c(-c5cccc(-n6ccc7cc(C8CC8)ccc7c6=O)c5CO)ncnc4[nH]3)cc2)CC1` [Example D-4, 6-cyclopropyl-2-[2-(hydroxymethyl)-3-[6-[4-(1-methyl-4-piperidyl)phenyl]-7H-pyrrolo[2,3-d]pyrimidin-4-yl]phenyl]isoquinolin-1-one] are 3 nM and 19 nM.
In the case of `CS(=O)(=O)N1CCN(Cc2ccc(-c3cc4c(-c5cccc(N6CCOc7cc(C8CC8)ccc7C6=O)c5CO)ccnc4[nH]3)nc2)CC1` [Example I-6, 8-cyclopropyl-4-[2-(hydroxymethyl)-3-[2-[5-[(4-methylsulfonylpiperazin-1-yl)methyl]-2-pyridyl]-1H-pyrrolo[2,3-b]pyridin-4-yl]phenyl]-2,3-dihydro-1,4-benzoxazepin-5-one], the IC50 in experiment [1] stood at 3 nM; in experiment [2], 36 nM.
The corresponding values for `CC1CN(Cc2ccc(-c3cc4c(-c5cccc(N6CCOc7cc(C8CC8)cc(F)c7C6=O)c5CO)ccnc4[nH]3)nc2)CC(C)N1C` (stereo not drawn) [Example I-14, 8-cyclopropyl-6-fluoro-4-[2-(hydroxymethyl)-3-[2-[5-[(3,4,5-trimethylpiperazin-1-yl)methyl]-2-pyridyl]-1H-pyrrolo[2,3-b]pyridin-4-yl]phenyl]-2,3-dihydro-1,4-benzoxazepin-5-one] are 1.7 nM and 7.5 nM.
Turning to `O=C(CN1CC=C(c2cc3c(-c4cccc(N5CCOc6cc(C7CC7)cc(F)c6C5=O)c4CO)ccnc3[nH]2)CC1)N1CCC1` [Example P-22, 4-[3-[2-[1-[2-(azetidin-1-yl)-2-oxo-ethyl]-3,6-dihydro-2H-pyridin-4-yl]-1H-pyrrolo[2,3-b]pyridin-4-yl]-2-(hydroxymethyl)phenyl]-8-cyclopropyl-6-fluoro-2,3-dihydro-1,4-benzoxazepin-5-one], the values for the IC50 in experiment [1] and in experiment [2] were 1.2 nM and 57 nM, respectively.
Turning to `CC1(O)CCN(C(=O)c2ccc(-c3cc4c(-c5cccc(N6CCOc7cc(C8CC8)cc(F)c7C6=O)c5CO)ccnc4[nH]3)nc2)CC1` [Example L-3, 8-cyclopropyl-6-fluoro-4-[2-(hydroxymethyl)-3-[2-[5-(4-hydroxy-4-methyl-piperidine-1-carbonyl)-2-pyridyl]-1H-pyrrolo[2,3-b]pyridin-4-yl]phenyl]-2,3-dihydro-1,4-benzoxazepin-5-one], the IC50 was 8 nM in experiment [1] and 21 nM in experiment [2].
The corresponding values for `O=C1c2ccc(C3CC3)cc2OCCN1c1cccc(-c2ccnc3[nH]c(-c4ccc(CN5CCN(C6CC6)CC5)cn4)cc23)c1CO` [Example I-5, 8-cyclopropyl-4-[3-[2-[5-[(4-cyclopropylpiperazin-1-yl)methyl]-2-pyridyl]-1H-pyrrolo[2,3-b]pyridin-4-yl]-2-(hydroxymethyl)phenyl]-2,3-dihydro-1,4-benzoxazepin-5-one] are 3 nM and 30 nM.
The corresponding values for `O=C1c2c(F)cc(C3CC3)cc2OCCN1c1cccc(-c2ccnc3[nH]c(-c4ccc(CN5CCN(C6COC6)CC5)cn4)cc23)c1CO` [Example I-13, 8-cyclopropyl-6-fluoro-4-[2-(hydroxymethyl)-3-[2-[5-[[4-(oxetan-3-yl)piperazin-1-yl]methyl]-2-pyridyl]-1H-pyrrolo[2,3-b]pyridin-4-yl]phenyl]-2,3-dihydro-1,4-benzoxazepin-5-one] are 2 nM and 8 nM.
The corresponding values for `O=C1c2ccc(C3CC3)cc2OCCN1c1cccc(-c2ccnc3[nH]c(-c4ccc(CN5CCN(CC(F)(F)F)CC5)cn4)cc23)c1CO` [Example I-9, 8-cyclopropyl-4-[2-(hydroxymethyl)-3-[2-[5-[[4-(2,2,2-trifluoroethyl)piperazin-1-yl]methyl]-2-pyridyl]-1H-pyrrolo[2,3-b]pyridin-4-yl]phenyl]-2,3-dihydro-1,4-benzoxazepin-5-one] are 8 nM and 47 nM.
As for `CC1(O)CN(C(=O)N2CC=C(c3cc4c(-c5cccc(N6CCOc7cc(C8CC8)cc(F)c7C6=O)c5CO)ccnc4[nH]3)CC2)C1` [Example P-15, 8-cyclopropyl-6-fluoro-4-[2-(hydroxymethyl)-3-[2-[1-(3-hydroxy-3-methyl-azetidine-1-carbonyl)-3,6-dihydro-2H-pyridin-4-yl]-1H-pyrrolo[2,3-b]pyridin-4-yl]phenyl]-2,3-dihydro-1,4-benzoxazepin-5-one], the IC50 in experiment [1] amounted to 1 nM; in experiment [2], 14.7 nM.
With `Cc1c(-c2ncnc3[nH]c(-c4ccc(C(=O)N5CCN(C)CC5)cc4)cc23)cccc1N1CCOc2cc(C3CC3)ccc2C1=O` [Example K-1, 8-cyclopropyl-4-[2-methyl-3-[6-[4-(4-methylpiperazine-1-carbonyl)phenyl]-7H-pyrrolo[2,3-d]pyrimidin-4-yl]phenyl]-2,3-dihydro-1,4-benzoxazepin-5-one], the half-maximal inhibitory concentration (IC50) in experiment [1] is 20 nM; in experiment [2] it was 147 nM.
As to `Cc1c(-c2ncnc3[nH]c(-c4ccc(C(=O)N5CCC(O)CC5)cc4)cc23)cccc1N1CCOc2cc(C3CC3)ccc2C1=O` [Example K-2, 8-cyclopropyl-4-[3-[6-[4-(4-hydroxypiperidine-1-carbonyl)phenyl]-7H-pyrrolo[2,3-d]pyrimidin-4-yl]-2-methyl-phenyl]-2,3-dihydro-1,4-benzoxazepin-5-one], the IC50 in experiment [1] amounted to 32 nM; in experiment [2], 815 nM.
Take `N#CCC(=O)N1CC=C(c2cc3c(-c4cccc(N5CCOc6cc(C7CC7)cc(F)c6C5=O)c4CO)ccnc3[nH]2)CC1` [Example P-27, 3-[4-[4-[3-(8-cyclopropyl-6-fluoro-5-oxo-2,3-dihydro-1,4-benzoxazepin-4-yl)-2-(hydroxymethyl)phenyl]-1H-pyrrolo[2,3-b]pyridin-2-yl]-3,6-dihydro-2H-pyridin-1-yl]-3-oxo-propanenitrile]: the values for the half-maximal inhibitory concentration (IC50) in experiment [1] and in experiment [2] were 1.2 nM and 50 nM, respectively.
With `Cc1c(-c2ncnc3[nH]c(-c4ccc(CN5CCNCC5)cc4)cc23)cccc1N1CCOc2cc(C3CC3)ccc2C1=O` [Example A-1, 8-cyclopropyl-4-[2-methyl-3-[6-[4-(piperazin-1-ylmethyl)phenyl]-7H-pyrrolo[2,3-d]pyrimidin-4-yl]phenyl]-2,3-dihydro-1,4-benzoxazepin-5-one], the concentration for half-maximal inhibition (IC50) in experiment [1] came to 7 nM; in experiment [2] it was 99 nM.
